How the values were obtained:
Assay type in all cases: cell-based
Human LBAT = biological target: T1, Human LBAT (Homo sapiens, UniProt Q14973); assay: LBAT (h/m) assay: 3H-taurocholic acid uptake in human LBAT-overexpressing cells; conditions: 0.3 μM 3H-taurocholic acid and 7.5 μM cold taurocholic acid, 20 minutes, read-out: hLBAT IC50
T1 construct: expressed in transfected cells; kept under Geneticin selection
T1 sequence (Q14973 1-349): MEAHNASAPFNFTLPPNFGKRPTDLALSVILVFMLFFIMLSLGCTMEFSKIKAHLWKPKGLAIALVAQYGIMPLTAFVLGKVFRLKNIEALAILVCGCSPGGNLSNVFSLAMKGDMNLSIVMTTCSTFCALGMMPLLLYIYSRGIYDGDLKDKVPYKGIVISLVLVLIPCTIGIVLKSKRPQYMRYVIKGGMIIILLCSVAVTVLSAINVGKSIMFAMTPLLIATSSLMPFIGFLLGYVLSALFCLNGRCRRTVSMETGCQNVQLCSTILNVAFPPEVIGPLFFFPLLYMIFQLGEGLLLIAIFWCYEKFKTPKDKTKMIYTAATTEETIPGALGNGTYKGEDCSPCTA
Method in brief: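 LBAT-overexpressing cells, serum-free MEM-alpha, 20 min at 37° C with inhibitor (3-fold, 10-point) plus 0.3 μM 3H-taurocholic acid and cold taurocholic acid (7.5 μM human; 25 μM mouse), 0.2% DMSO. Stopped on ice, washed with 1 mM unlabelled taurocholate; uptake by scintillation counting.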

Human ASBT = biological target: T2, Human ASBT (Homo sapiens, UniProt Q12908); assay: ASBT (h/m) assay: 3H-taurocholic acid uptake in human ASBT-overexpressing cells; conditions: 0.25 μM 3H-taurocholic acid and 5 μM cold taurocholic acid, 20 minutes, read-out: hASBT IC50
T2 construct: expressed in transfected cells; kept under Puromycin selection
T2 sequence (Q12908 1-348): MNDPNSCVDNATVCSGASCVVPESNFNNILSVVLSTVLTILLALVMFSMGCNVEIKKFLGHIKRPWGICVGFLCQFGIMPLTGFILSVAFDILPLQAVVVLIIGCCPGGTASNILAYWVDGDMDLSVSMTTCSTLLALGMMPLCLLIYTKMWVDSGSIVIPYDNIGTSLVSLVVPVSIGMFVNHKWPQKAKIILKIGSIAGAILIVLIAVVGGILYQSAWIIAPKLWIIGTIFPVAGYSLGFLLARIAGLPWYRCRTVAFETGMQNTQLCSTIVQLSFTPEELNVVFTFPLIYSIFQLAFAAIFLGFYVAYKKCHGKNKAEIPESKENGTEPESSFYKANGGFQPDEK
Method in brief: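 ASBT-overexpressing cells, seeded 48 h earlier, took up 0.25 µM 3H-taurocholic acid plus 5 µM cold taurocholate for 20 min at 37 °C with inhibitor (10-point 3-fold series, top 10 µM, 0.2% DMSO). Ice stop, washes with cold 1 mM taurocholate in HEPES-HBSS pH 7.4, scintillation counting.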

HepaRG cells = assay: HepaRG-based assay: 3H-taurocholic acid uptake in differentiated HepaRG cells; conditions: Homo sapiens, HepaRG, 0.3 μM 3H-taurocholic acid and 7.5 μM cold taurocholic acid, 30 minutes
Method in brief: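 Differentiated HepaRG cells cultured 7 days post-seeding were exposed for 30 min at 37 °C to 0.3 μM 3H-taurocholic acid plus 7.5 μM cold taurocholic acid with inhibitor (3-fold dilutions, 0.2% DMSO). Uptake was stopped on ice, washed with 1 mM unlabelled taurocholic acid, and counted by scintillation.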

## CCCCC1(CC)CN(c2ccccc2)c2ccc(O/C=C/C(=O)O)cc2S(=O)(=O)C1 (stereo not drawn) [Example 21, (E)-3-((3-butyl-3-ethyl-1,1-dioxido-5-phenyl-2,3,4,5-tetrahydro-1,5-benzothiazepin-8-yl)oxy)acrylic Acid]
Human LBAT
  IC50: 4150 nM
Human ASBT
  IC50: 929 nM
HepaRG cells
  IC50: 5230 nM

## CCCCC1(CCCC)CN(c2ccc(F)c(F)c2)c2cc(SC)c(O/C=C(\F)C(=O)O)cc2S(=O)(=O)C1 [Example 107, (Z)-3-((3,3-dibutyl-5-(3,4-difluorophenyl)-7-(methylthio)-1,1-dioxido-2,3,4,5-tetrahydro-1,5-benzothiazepin-8-yl)oxy)-2-fluoroacrylic Acid]
Human LBAT
  IC50: 50 nM
Human ASBT
  IC50: 59 nM
HepaRG cells
  IC50: 365 nM

## CCCCC1(CC)CN(c2ccccc2)c2cc(Cl)c(O/C=C/C(=O)O)cc2S(=O)(=O)C1 (single isomer, unassigned) [Example 50, (E)-3-((3-butyl-7-chloro-3-ethyl-1,1-dioxido-5-phenyl-2,3,4,5-tetrahydro-1,5-benzothiazepin-8-yl)oxy)acrylic acid]
Human LBAT
  IC50: 89 nM
Human ASBT
  IC50: 77 nM
HepaRG cells
  IC50: 339 nM

## CCCCC1(CCCC)CN(c2ccc(C(=O)NC(C)(C)C)cc2)c2cc(SC)c(O/C=C(\F)C(=O)O)cc2S(=O)(=O)C1 [Example 79, (Z)-3-((3,3-dibutyl-5-(4-(tert-butylcarbamoyl)phenyl)-7-(methylthio)-1,1-dioxido-2,3,4,5-tetrahydro-1,5-benzothiazepin-8-yl)oxy)-2-fluoroacrylic Acid]
Human LBAT
  IC50: 8 nM
Human ASBT
  IC50: > 1000 nM
HepaRG cells
  IC50: 246 nM

## CCCCC1(CC)CN(c2ccc(C(=O)NC(C)(C)C)cc2)c2cc(SC)c(O/C=C/C(=O)O)cc2S(=O)(=O)C1 (stereo not drawn) [Example 62, (E)-3-((3-butyl-5-(4-(tert-butylcarbamoyl)phenyl)-3-ethyl-7-(methylthio)-1,1-dioxido-2,3,4,5-tetrahydro-1,5-benzothiazepin-8-yl)oxy)acrylic Acid]
Human LBAT
  IC50: 235 nM
Human ASBT
  IC50: > 20000 nM
HepaRG cells
  IC50: 772 nM

## CCCCC1(CC)CN(c2ccccc2)c2cc(Br)c(O/C=C/C(=O)O)cc2S(=O)(=O)N1 (stereo not drawn) [Example 87, (E)-3-((7-bromo-3-butyl-3-ethyl-1,1-dioxido-5-phenyl-2,3,4,5-tetrahydro-1,2,5-benzothiadiazepin-8-yl)oxy)acrylic Acid]
Human LBAT
  IC50: 220 nM
Human ASBT
  IC50: 157 nM
HepaRG cells
  IC50: 1080 nM

## CCCCC1(CCCC)CN(c2ccccc2)c2cc(OC)c(O/C=C/C(=O)O)cc2S(=O)(=O)C1 [Example 14, (E)-3-((3,3-dibutyl-7-methoxy-1,1-dioxido-5-phenyl-2,3,4,5-tetrahydro-1,5-benzothiazepin-8-yl)oxy)acrylic Acid]
Human LBAT
  IC50: 1430 nM
Human ASBT
  IC50: 304 nM
HepaRG cells
  IC50: 5160 nM

## CCCCC1(CC)CN(c2ccccc2)c2cc(N(C)C)c(O/C=C(\F)C(=O)O)cc2S(=O)(=O)C1 (stereo not drawn) [Example 108, (Z)-3-((3-butyl-7-(dimethylamino)-3-ethyl-1,1-dioxido-5-phenyl-2,3,4,5-tetrahydro-1,5-benzothiazepin-8-yl)oxy)-2-fluoroacrylic Acid]
Human LBAT
  IC50: 5.9 nM
Human ASBT
  IC50: 8.5 nM
HepaRG cells
  IC50: 447 nM

## CCCC[C@@]1(CC)CN(c2ccccc2)c2cc(SC)c(O/C=C/C(=O)O)cc2S(=O)(=O)N1 (single isomer, unassigned) [Example 77]
Human LBAT
  IC50: 297 nM
Human ASBT
  IC50: 24 nM
HepaRG cells
  IC50: 5330 nM

## CCCC[C@@]1(CC)CN(c2ccccc2)c2cc(SC)c(O/C=C(\F)C(=O)O)cc2S(=O)(=O)N1 (single isomer, unassigned) [Example 85]
Human LBAT
  IC50: 71 nM
Human ASBT
  IC50: 7 nM
HepaRG cells
  IC50: 1110 nM

## CCCCC1(CCCC)CN(c2ccc(NC(=O)CC)cc2)c2cc(SC)c(O/C=C(\F)C(=O)O)cc2S(=O)(=O)C1 [Example 71, (Z)-3-((3,3-dibutyl-7-(methylthio)-1,1-dioxido-5-(4-propionamidophenyl)-2,3,4,5-tetrahydro-1,5-benzothiazepin-8-yl)oxy)-2-fluoroacrylic Acid]
Human LBAT
  IC50: 47 nM
Human ASBT
  IC50: > 3000 nM
HepaRG cells
  IC50: 296 nM

## CCCCC1(CCCC)CN(c2ccc(NC(=O)C(C)(C)C)cc2)c2cc(SC)c(O/C=C(\F)C(=O)O)cc2S(=O)(=O)C1 [Example 28, (Z)-3-((3,3-dibutyl-7-(methylthio)-1,1-dioxido-5-(4-pivalamidophenyl)-2,3,4,5-tetrahydro-1,5-benzothiazepin-8-yl)oxy)-2-fluoroacrylic Acid]
Human LBAT
  IC50: 13 nM
Human ASBT
  IC50: 4450 nM
HepaRG cells
  IC50: 89 nM

## CCCCC1(CC)CN(c2ccccc2)c2cc(SCC)c(O/C=C(\F)C(=O)O)cc2S(=O)(=O)C1 (stereo not drawn) [Example 72, (Z)-3-((3-butyl-3-ethyl-7-(ethylthio)-1,1-dioxido-5-phenyl-2,3,4,5-tetrahydro-1,5-benzothiazepin-8-yl)oxy)-2-fluoroacrylic Acid]
Human LBAT
  IC50: 13 nM
Human ASBT
  IC50: 76 nM
HepaRG cells
  IC50: 319 nM

## CCCCC1(CC)CN(c2ccccc2)c2cc(F)c(O/C=C(\F)C(=O)O)cc2S(=O)(=O)C1 (stereo not drawn) [Example 96, (Z)-3-((3-butyl-3-ethyl-7-fluoro-1,1-dioxido-5-phenyl-2,3,4,5-tetrahydro-1,5-benzothiazepin-8-yl)oxy)-2-fluoroacrylic Acid]
Human LBAT
  IC50: 231 nM
Human ASBT
  IC50: 15 nM
HepaRG cells
  IC50: 785 nM

## CCCCC1(CC)CN(c2ccccc2)c2cc(SC)c(O/C=C/C(=O)O)cc2S(=O)(=O)C1 (racemic) [Example 16, (E)-3-((3-butyl-3-ethyl-7-(methylthio)-1,1-dioxido-5-phenyl-2,3,4,5-tetrahydro-1,5-benzothiazepin-8-yl)oxy)acrylic Acid]
Human LBAT
  IC50: 82 nM
Human ASBT
  IC50: 33 nM
HepaRG cells
  IC50: 1030 nM

## CCCCC1(CCCC)CN(c2ccc(N(C)C)cc2)c2cc(SC)c(O/C=C/C(=O)O)cc2S(=O)(=O)C1 [Example 25, (E)-3-((3,3-dibutyl-5-(4-(dimethylamino)phenyl)-7-(methylthio)-1,1-dioxido-2,3,4,5-tetrahydro-1,5-benzothiazepin-8-yl)oxy)acrylic Acid]
Human LBAT
  IC50: 351 nM
Human ASBT
  IC50: 370 nM
HepaRG cells
  IC50: 3310 nM

## CCCCC1(CC)CN(c2ccccc2)c2cc(SCC)c(O/C=C/C(=O)O)cc2S(=O)(=O)C1 (stereo not drawn) [Example 73, (E)-3-((3-butyl-3-ethyl-7-(ethylthio)-1,1-dioxido-5-phenyl-2,3,4,5-tetrahydro-1,5-benzothiazepin-8-yl)oxy)acrylic Acid]
Human LBAT
  IC50: 120 nM
Human ASBT
  IC50: 155 nM
HepaRG cells
  IC50: 766 nM

## CCCCC1(CC)CN(c2ccccc2)c2cc(Cl)c(O/C=C/C(=O)O)cc2S(=O)(=O)C1 (racemic) [Example 49, (E)-3-((3-butyl-7-chloro-3-ethyl-1,1-dioxido-5-phenyl-2,3,4,5-tetrahydro-1,5-benzothiazepin-8-yl)oxy)acrylic Acid]
Human LBAT
  IC50: 94 nM
Human ASBT
  IC50: 220 nM
HepaRG cells
  IC50: 570 nM

## CCC1(CC)CN(c2ccccc2)c2cc(SC)c(O/C=C/C(=O)O)cc2S(=O)(=O)C1 [Example 39, (E)-3-((3,3-diethyl-7-(methylthio)-1,1-dioxido-5-phenyl-2,3,4,5-tetrahydro-1,5-benzothiazepin-8-yl)oxy)acrylic Acid]
Human LBAT
  IC50: 75 nM
Human ASBT
  IC50: 796 nM
HepaRG cells
  IC50: 399 nM

— patent publication US11306064B2, “Benzothia(di)azepine compounds and their use as bile acid modulators” (Albireo AB, priority 2018, dated 2022)
